{"source": "patent US11730717B1", "about": "“Melanin-inspired antimicrobial” (The Board of Regents for the Oklahoma Agricultural and …, priority 2020, dated 2023)", "key": {"[1]": {"test_system": "B. subtilts ATCC 6633", "assay": "MIC and MBC values (Table 2)", "assay_type": "cell-based", "details": "Bacillus subtilis, ATCC6633"}, "[2]": {"test_system": "MRSA", "assay": "Scanning electron microscopy of treated bacteria", "assay_type": "cell-based, Staphylococcus aureus", "details": "0.01 mg/mL for 30 minutes", "experimental": "MRSA was grown overnight in 10 mL of LB broth, sub-cultured (5 mL of overnight culture added to 20 mL LB) and grown for 3 h. MRSA culture (300 μL) were removed, placed into a 1.5 mL tube, and treated with DMSO or EIPE-1 (0.01 mg/mL) for 30 minutes. Each sample was placed on glass coverslips (treated with poly-L-lysine) in a 24 well plate and fixed with 2% glutaraldehyde (in 0.1 M sodium cacodylate buffer) for 2 h at room temperature. After fixation, samples were washed three times with 0.1 M sodium cacodylate buffer. Samples were then fixed with 1% osmium tetroxide in water for 1 h at room temperature and were then washed three times with 0.1 M sodium cacodylate buffer. The samples were then dehydrated with an ethanol series (once with 50%, 70%, 90%, 95% and thrice with 100% ethanol). Samples were dried using hexamethyldisilazane (HAMIDS) and then were mounted on stubs. Finally, samples were coated with gold and palladium using an automated sputter coater. Micrographs were acquired using Quanta 600 Scanning electron microscope.\nTo visualize potential membrane changes, DMSO and EIPE-1 treated MRSA were prepped and visualized by scanning electron microscopy (FIG. 4B). […] FIG. 4(C) contains bar charts that show the percentage of live and dead MRSA from 20 microscopy fields of view."}, "[3]": {"test_system": "Escherichia coli (E. coli)", "assay": "Antimicrobial activity against E. coli", "assay_type": "cell-based", "experimental": "The methicillin resistant Staphylococcus aureus (MRSA) and Pseudomonas aeruginosa (PA) strains used in this study are clinical isolates obtained from an adult CF patient at the Cystic Fibrosis Clinic at the OU Children's Hospital (Oklahoma City, Okla.). Escherichia coli (E. coli) and Enterococcus faecalis (E. faecalis) were obtained from American Type Culture Collection (ATCC). The strains were grown overnight with shaking at 37° C. (220 RPM) in 15 mL of Luria-Bertani (LB) broth. The overnight culture was sub-cultured the next day before use for the MIC experiments. All sub-cultures consisted of 1 mL of the overnight culture, mixed with 10 mL of Mueller Hinton broth. The working stock of the EIPE-1 and DBI was prepared by dissolving 1 mg of each in 1 mL of DMSO.\nThe minimum inhibitory concentrations (MICs) were determined by the broth microdilution method, following the guidelines of the Clinical and Laboratory Standards Institute (CLSI). Two-fold serial dilutions of EIPE-1, DBI, and Arm (starting with 1 mg/mL) were prepared in a 100 μL volume in 96-well microtiter plates. The dilution series included DMSO as a negative control. […] Plates were incubated with shaking at 220 RPM at 37° C., and the MIC was determined based on the lowest concentration at which no visible growth of the bacterial isolate was observed."}, "[4]": {"test_system": "C. neoformans", "assay": "Scanning electron microscopy of treated fungal cells", "assay_type": "cell-based, Cryptococcus neoformans", "details": "exposed at the minimum inhibitory concentration 1.749 μg/mL for 4, 8, 12 or 24 hrs", "experimental": "C. neoformans were suspended in RPMI with MOPs, 0.165M, at a concentration of 2.0×10^6 cells/mL. RPMI Mops media was added to a 2 mL collection tube in a volume of 100 μL. […] The tubes were incubated at 35° C. in a humid incubator for set time points of 4 hrs, 8 hrs, 12 hrs, or 24 hrs. Once removed, the tubes were placed in a centrifuge for 1 min. at 5000 rpm. Media was removed. The pellet was resuspended in 2.0% glutaraldehyde in 0.1 M cacodylate buffer at a volume of 1 mL for a minimum of 2 hrs.\nFixed C. neoformans cells were placed in a centrifuge for 1 min at 5000 rpm. Media was removed and C. neoformans was rinsed 3 times in a buffered wash at fixed intervals of 15 mins. Rinsed cells were resuspended in 1% OsO4 at room temperature for 1 hr in a 36-well plate with a cover slip. 1% OsO4 was removed. C. neoformans was rinsed 3 times in a buffered wash at fixed intervals of 15 mins. C. neoformans were dehydrated in ethanol at 50%, 70%, 90%, 95%, and 100% three times at fixed intervals of 15 mins. C. neoformans were wash two times with […] at a time interval of 5 mins. Cover slips were placed on a clear sheet for 12 hrs to dry. Cover slips were mounted on stubs with silver paint. The cover slips were covered in an Au—Pd coat. […]"}, "[5]": {"test_system": "S. aureus SFL64", "assay": "MIC and MBC values (Table 2)", "assay_type": "cell-based, Staphylococcus aureus", "details": "repeated determinations"}, "[6]": {"test_system": "S. aureus ATCC 25923", "assay": "MIC and MBC values (Table 2)", "assay_type": "cell-based, Staphylococcus aureus"}}, "note": "“Also recorded” adds a separate entry of the source. Read-outs that look alike come from different tables or passages of the source.", "data": [{"smiles": "COC(=O)c1cc2c(C#Cc3ccc(OCCC[N+](C)(C)C)cc3)c(OC)c(OC)c(C#Cc3ccc(OCCC[N+](C)(C)C)cc3)c2n1C", "note": "[EIPE-1, 3,3′-((((5,6-dimethoxy-2-(methoxycarbonyl)-1-methyl-1H-indole-4,7-diyl)bis(ethyne-2,1-diyl))bis(4,1-phenylene))bis(oxy))bis(N,N,N-trimethylpropan-1-aminium) iodide]", "values": [{"measurement": "MBC", "setting": "[1]", "result": 1, "unit": "µg/mL"}, {"measurement": "MIC", "setting": "[1]", "result": 1, "unit": "µg/mL"}, {"measurement": "cell membrane appearance by SEM", "setting": "[2]", "result": "cell membrane damage; also recorded: damaged cell membranes"}, {"measurement": "activity against E. coli", "setting": "[3]", "result": "did not display any activity"}, {"measurement": "cell wall changes by SEM", "setting": "[4]", "result": "structural changes to their cell wall; also recorded: changes to the cell wall shown at 4 hours"}, {"measurement": "MIC", "setting": "[5]; S. aureus SFL64", "result": 1.000, "unit": "µg/mL"}, {"measurement": "MIC", "setting": "[5]; Staphylococcus aureus, SFL64, S. aureus SFL64, read-out: MIC", "result": 0.5, "unit": "µg/mL"}, {"measurement": "MBC", "setting": "[6]; Staphylococcus aureus, ATCC25923, repeated determinations", "result": 2, "unit": "µg/mL"}, {"measurement": "MIC", "setting": "[6]; Staphylococcus aureus, ATCC25923, repeated determinations, read-out: MIC", "result": 2, "unit": "µg/mL"}, {"measurement": "MIC", "setting": "[6]; repeated determinations", "result": 1.000, "unit": "µg/mL"}]}]}
